{
  "source": "patent US20120010075A1",
  "about": "(priority 2009, published 2012)",
  "test_system": "Phytophthora infestans",
  "format": "in vivo, Phytophthora infestans on tomato (Outdoor Girl)",
  "key": {"[1]": {"settings": "hydrazone 200 μM + CuCl2 200 μM"}, "[2]": {"settings": "hydrazone 200 μM + CuCl2 400 μM"}, "[3]": {"settings": "hydrazone 200 μM + CuCl2 800 μM"}, "[4]": {"settings": "hydrazone 200 μM + CuSO4 200 μM"}, "[5]": {"settings": "hydrazone 200 μM + CuSO4 400 μM"}, "[6]": {"settings": "hydrazone 200 μM + CuSO4 800 μM"}, "[7]": {"settings": "hydrazone 400 μM + CuCl2 200 μM"}, "[8]": {"settings": "hydrazone 400 μM + CuCl2 400 μM"}, "[9]": {"settings": "hydrazone 400 μM + CuCl2 800 μM"}, "[10]": {"settings": "hydrazone 400 μM + CuSO4 200 μM"}, "[11]": {"settings": "hydrazone 400 μM + CuSO4 400 μM"}, "[12]": {"settings": "hydrazone 400 μM + CuSO4 800 μM"}},
  "note": "Like-named read-outs stand apart in the source and are kept apart here.",
  "data": [
    {"smiles": "O=C(N/N=C/c1cc(Cl)cc(Cl)c1O)c1ccccc1", "note": "[Example 16]", "values": [
      {"measurement": "% Control of Tomato Late Blight, predicted (in brackets, Colby)", "setting": "hydrazone 50 μM + CuSO4 10 μM", "result": 12.8, "unit": "%"},
      {"measurement": "% Control of Tomato Late Blight", "setting": "hydrazone 50 μM + CuSO4 50 μM", "result": 67.7, "unit": "%"},
      {"measurement": "% Control of Tomato Late Blight, predicted (in brackets, Colby)", "setting": "hydrazone 50 μM + CuSO4 50 μM", "result": 15.5, "unit": "%"},
      {"measurement": "% Control of Tomato Late Blight", "setting": "hydrazone 50 μM + CuSO4 200 μM", "result": 72.9, "unit": "%"},
      {"measurement": "% Control of Tomato Late Blight, predicted (in brackets, Colby)", "setting": "hydrazone 50 μM + CuSO4 200 μM", "result": 55.4, "unit": "%"},
      {"measurement": "% Control of Tomato Late Blight", "setting": "hydrazone 50 μM + CuSO4 400 μM", "result": 78.0, "unit": "%"},
      {"measurement": "% Control of Tomato Late Blight, predicted (in brackets, Colby)", "setting": "hydrazone 50 μM + CuSO4 400 μM", "result": 78.8, "unit": "%"},
      {"measurement": "% Control of Tomato Late Blight", "setting": "hydrazone 50 μM + CuSO4 800 μM", "result": 91.6, "unit": "%"},
      {"measurement": "% Control of Tomato Late Blight, predicted (in brackets, Colby)", "setting": "hydrazone 50 μM + CuSO4 800 μM", "result": 84.8, "unit": "%"},
      {"measurement": "% Control of Tomato Late Blight", "setting": "hydrazone 50 μM alone, no copper", "result": 11.3, "unit": "%"},
      {"measurement": "% Control of Tomato Late Blight", "setting": "hydrazone 200 μM + CuCl2 10 μM", "result": 67.8, "unit": "%"},
      {"measurement": "% Control of Tomato Late Blight, predicted (in brackets, Colby)", "setting": "hydrazone 200 μM + CuCl2 10 μM", "result": 22.7, "unit": "%"},
      {"measurement": "% Control of Tomato Late Blight", "setting": "hydrazone 200 μM + CuCl2 50 μM", "result": 96.6, "unit": "%"},
      {"measurement": "% Control of Tomato Late Blight, predicted (in brackets, Colby)", "setting": "hydrazone 200 μM + CuCl2 50 μM", "result": 28.1, "unit": "%"},
      {"measurement": "% Control of Tomato Late Blight", "setting": "[1]", "result": 95.8, "unit": "%"},
      {"measurement": "% Control of Tomato Late Blight, predicted (in brackets, Colby)", "setting": "[1]", "result": 51.5, "unit": "%"},
      {"measurement": "% Control of Tomato Late Blight", "setting": "[2]", "result": 90.8, "unit": "%"},
      {"measurement": "% Control of Tomato Late Blight, predicted (in brackets, Colby)", "setting": "[2]", "result": 65.4, "unit": "%"},
      {"measurement": "% Control of Tomato Late Blight", "setting": "[3]", "result": 96.7, "unit": "%"},
      {"measurement": "% Control of Tomato Late Blight, predicted (in brackets, Colby)", "setting": "[3]", "result": 76.6, "unit": "%"},
      {"measurement": "% Control of Tomato Late Blight", "setting": "hydrazone 200 μM + CuSO4 10 μM", "result": 78.0, "unit": "%"},
      {"measurement": "% Control of Tomato Late Blight, predicted (in brackets, Colby)", "setting": "hydrazone 200 μM + CuSO4 10 μM", "result": 22.7, "unit": "%"},
      {"measurement": "% Control of Tomato Late Blight", "setting": "hydrazone 200 μM + CuSO4 50 μM", "result": 81.3, "unit": "%"},
      {"measurement": "% Control of Tomato Late Blight, predicted (in brackets, Colby)", "setting": "hydrazone 200 μM + CuSO4 50 μM", "result": 25.1, "unit": "%"},
      {"measurement": "% Control of Tomato Late Blight", "setting": "[4]", "result": 93.2, "unit": "%"},
      {"measurement": "% Control of Tomato Late Blight, predicted (in brackets, Colby)", "setting": "[4]", "result": 60.4, "unit": "%"},
      {"measurement": "% Control of Tomato Late Blight", "setting": "[5]", "result": 95.8, "unit": "%"},
      {"measurement": "% Control of Tomato Late Blight, predicted (in brackets, Colby)", "setting": "[5]", "result": 81.2, "unit": "%"},
      {"measurement": "% Control of Tomato Late Blight", "setting": "[6]", "result": 97.5, "unit": "%"},
      {"measurement": "% Control of Tomato Late Blight, predicted (in brackets, Colby)", "setting": "[6]", "result": 86.5, "unit": "%"},
      {"measurement": "% Control of Tomato Late Blight", "setting": "hydrazone 200 μM alone, no copper", "result": 21.4, "unit": "%"},
      {"measurement": "% Control of Tomato Late Blight", "setting": "hydrazone 400 μM + CuCl2 10 μM", "result": 64.4, "unit": "%"},
      {"measurement": "% Control of Tomato Late Blight, predicted (in brackets, Colby)", "setting": "hydrazone 400 μM + CuCl2 10 μM", "result": 26.9, "unit": "%"},
      {"measurement": "% Control of Tomato Late Blight", "setting": "hydrazone 400 μM + CuCl2 50 μM", "result": 91.7, "unit": "%"},
      {"measurement": "% Control of Tomato Late Blight, predicted (in brackets, Colby)", "setting": "hydrazone 400 μM + CuCl2 50 μM", "result": 32.0, "unit": "%"},
      {"measurement": "% Control of Tomato Late Blight", "setting": "[7]", "result": 91.7, "unit": "%"},
      {"measurement": "% Control of Tomato Late Blight, predicted (in brackets, Colby)", "setting": "[7]", "result": 54.1, "unit": "%"},
      {"measurement": "% Control of Tomato Late Blight", "setting": "[8]", "result": 99.8, "unit": "%"},
      {"measurement": "% Control of Tomato Late Blight, predicted (in brackets, Colby)", "setting": "[8]", "result": 67.3, "unit": "%"},
      {"measurement": "% Control of Tomato Late Blight", "setting": "[9]", "result": 100.0, "unit": "%"},
      {"measurement": "% Control of Tomato Late Blight, predicted (in brackets, Colby)", "setting": "[9]", "result": 77.9, "unit": "%"},
      {"measurement": "% Control of Tomato Late Blight", "setting": "hydrazone 400 μM + CuSO4 10 μM", "result": 41.5, "unit": "%"},
      {"measurement": "% Control of Tomato Late Blight, predicted (in brackets, Colby)", "setting": "hydrazone 400 μM + CuSO4 10 μM", "result": 26.9, "unit": "%"},
      {"measurement": "% Control of Tomato Late Blight", "setting": "hydrazone 400 μM + CuSO4 50 μM", "result": 54.5, "unit": "%"},
      {"measurement": "% Control of Tomato Late Blight, predicted (in brackets, Colby)", "setting": "hydrazone 400 μM + CuSO4 50 μM", "result": 29.2, "unit": "%"},
      {"measurement": "% Control of Tomato Late Blight", "setting": "[10]", "result": 87.2, "unit": "%"},
      {"measurement": "% Control of Tomato Late Blight, predicted (in brackets, Colby)", "setting": "[10]", "result": 62.6, "unit": "%"},
      {"measurement": "% Control of Tomato Late Blight", "setting": "[11]", "result": 96.6, "unit": "%"},
      {"measurement": "% Control of Tomato Late Blight, predicted (in brackets, Colby)", "setting": "[11]", "result": 82.2, "unit": "%"},
      {"measurement": "% Control of Tomato Late Blight", "setting": "[12]", "result": 98.3, "unit": "%"},
      {"measurement": "% Control of Tomato Late Blight, predicted (in brackets, Colby)", "setting": "[12]", "result": 87.3, "unit": "%"},
      {"measurement": "% Control of Tomato Late Blight", "setting": "hydrazone 400 μM alone, no copper", "result": 25.7, "unit": "%"}
    ]}
  ]
}
